Results on 21 compounds are retold here after patent US11970474B2, “Substituted benzodiazoles and use thereof in therapy” (THOMAS HELLEDAYS STIFTELSE FÖR MEDICINSK FORSKNING, priority 2018, dated 2024).

The test system of one experiment is MLE12 cells. The experiment can be described thus: Cell viability assay in MLE12 cells (resazurin). The class given is cell-based, mouse. The note with it: Mus musculus, TNF-α 20 ng/ml, resazurin added after 24 hours culture. A digest of the protocol: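 MLE12 cells (7500 cells/well) were seeded onto 11-point duplicate compound dose-responses, with TNF-α (final 20 ng/ml) added after 1 hour at 37° C. After 24 hours, resazurin was added for 6 hours and resorufin fluorescence read (ex544 nm/em595 nm). EC50 values were calculated by curve fitting.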

A further experiment has as its system CCL2. The experiment can be described thus: Mouse CCL2 assay in MLE12 cells. The class given is cell-based. The note with it: Mus musculus, MLE12, 30 h; for pEC50: MLE12 cells, TNF-α 20 ng/ml, supernatant after 30 hours, HTRF, read-out: CCL2 (EC50). A digest of the protocol:
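MLE12 mouse lung epithelial cells (7500/well, DMEM/F12 with 5% FBS) preincubated 1 h with compounds (6-point dose-response, duplicate), then stimulated with TNF-α (final 20 ng/ml) for 30 h at 37 °C. Secreted CCL2 measured by HTRF sandwich immunoassay (Ex330/Em620, 665 nm) against standard curve; IC50 from delta ratios.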
In general terms: In TR-FRET formats the signal depends on donor and acceptor labels being close together.

A further experiment concerns the target OGG1 (Homo sapiens (Human), UniProt O15527). Briefly: In vitro OGG1 activity assay. The note with it: 800 pM OGG1 enzyme, 2 nM human APEX1, 10 nM 8-oxoA:C substrate. The class given is biochemical. A digest of the protocol: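 Fluorescence-release assay on a duplex oligonucleotide carrying an OGG1 substrate base beside a fluorophore, quenched from the complementary strand. Excess APEX1 cleaves the abasic site left by base excision, melting the duplex and unquenching the fluorophore. Compounds in DMSO were dispensed before enzyme and substrate, and fluorescein signal was read.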

pEC50, pIC50: −log10 of the molar value. Where two headings read alike, the source gives them in different places.

Chain of OGG1 (O15527 whole entry): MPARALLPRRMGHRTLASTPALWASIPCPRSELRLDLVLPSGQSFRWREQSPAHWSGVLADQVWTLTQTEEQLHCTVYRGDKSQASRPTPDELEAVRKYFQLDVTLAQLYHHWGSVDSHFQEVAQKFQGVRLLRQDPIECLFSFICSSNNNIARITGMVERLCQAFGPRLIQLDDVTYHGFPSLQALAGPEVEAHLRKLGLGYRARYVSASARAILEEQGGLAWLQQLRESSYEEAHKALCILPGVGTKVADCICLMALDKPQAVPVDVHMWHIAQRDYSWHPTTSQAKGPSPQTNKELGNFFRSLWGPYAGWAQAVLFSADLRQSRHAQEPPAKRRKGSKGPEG

With `O=c1[nH]c2c(Br)cccc2n1[C@H]1CC[C@@H](C(=O)Nc2ccc3ncccc3c2)CC1` [Example 204, Cis-4-(4-bromo-2-oxo-2,3-dihydro-1H-1,3-benzodiazol-1-yl)-N-(quinolin-6-yl)cyclohexane-1-carboxamide], the negative-log IC50 (pIC50) (in general, the IC50 on a negative log10 scale, so that one unit is a factor of ten) with MLE12 cells (MLE12, 24 h) was 5.10; against OGG1, 7.18. Besides, in the experiment with CCL2, the pEC50 – broadly, the negative decadic logarithm of the EC50, by convention in mol/L – was 4.89.
For `COc1cc(NC(=O)N2C3CCC2CC(n2c(=O)[nH]c4c(-c5ccc(CO)nc5)cccc42)C3)ccc1Cl` (stereo not drawn) [Example 93, N-(4-chloro-3-methoxyphenyl)-3-{4-[6-(hydroxymethyl)pyridin-3-yl]-2-oxo-2,3-dihydro-1H-1,3-benzodiazol-1-yl}-(endo)-8-azabicyclo[3.2.1]octane-8-carboxamide], the pIC50 in the experiment with MLE12 cells (MLE12, 24 h) was 4.67; on OGG1, 7.04. Moreover, the negative logarithm of the EC50 (pEC50) with CCL2 is 4.46.
For `O=c1[nH]c2c(Br)cccc2n1[C@H]1CC[C@@H](C(=O)Nc2ccc(Cl)c(Cl)c2)CC1` [Example 118, (Cis)-4-(4-bromo-2-oxo-2,3-dihydro-1H-1,3-benzodiazol-1-yl)-N-(3,4-dichlorophenyl)cyclohexane-1-carboxamide], in that order: 5.27, 6.63 and 4.78.
As to `COc1ccc(NC(=O)[C@H]2CC[C@@H](n3c(=O)[nH]c4c(Br)cccc43)CC2)c(F)c1F` [Example 154, (Cis)-4-(4-bromo-2-oxo-2,3-dihydro-1H-1,3-benzodiazol-1-yl)-N-(2,3-difluoro-4-methoxyphenyl)cyclohexane-1-carboxamide], the pIC50 in the experiment with MLE12 cells (MLE12, 24 h) is 4.79; on OGG1, 6.42. For the same compound, the pEC50 in the experiment on CCL2 was 4.28.
Take `O=c1[nH]c2c(Br)cccc2n1[C@H]1CC[C@@H](C(=O)Nc2ccc(Cl)nc2)CC1` [Example 184, Cis-4-(4-bromo-2-oxo-2,3-dihydro-1H-1,3-benzodiazol-1-yl)-N-(6-chloropyridin-3-yl)cyclohexane-1-carboxamide]: the negative logarithm of the IC50 (pIC50) was 5.10 in the experiment with MLE12 cells (MLE12, 24 h) and 6.49 against OGG1. Also, the pEC50 in the experiment on CCL2 is 4.78.
On to `COc1ccc(NC(=O)[C@H]2CC[C@@H](n3c(=O)[nH]c4c(Br)cccc43)CC2)cc1C(F)(F)F` [Example 129, (Cis)-4-(4-bromo-2-oxo-2,3-dihydro-1H-1,3-benzodiazol-1-yl)-N-[4-methoxy-3-(trifluoromethyl)phenyl]cyclohexane-1-carboxamide], for which the pIC50 with MLE12 cells (MLE12, 24 h) is 5.02; against OGG1, 6.94. Moreover, in the experiment on CCL2, the pEC50 is 4.67.
`O=C(Nc1ccc(Cl)c(Cl)c1)N1C2CCC1CC(n1c(=O)[nH]c3c(Br)cccc31)C2` (stereo not drawn) [Example 72, 3-(4-Bromo-2-oxo-2,3-dihydro-1H-1,3-benzodiazol-1-yl)-N-(3,4-dichlorophenyl)-(endo)-8-azabicyclo[3.2.1]octane-8-carboxamide]: the results for the pIC50 in the experiment with MLE12 cells and on OGG1 were 5.20 and 7.17, respectively. Also, in the experiment with CCL2 (read-out: CCL2 (EC50, nM)), the EC50 (commonly the concentration that produces a half-maximal response) was 21500 nM.
`Cc1ccc(NC(=O)[C@H]2CC[C@@H](n3c(=O)[nH]c4c(Br)cccc43)CC2)c(F)c1` [Example 153, (Cis)-4-(4-bromo-2-oxo-2,3-dihydro-1H-1,3-benzodiazol-1-yl)-N-(2-fluoro-4-methylphenyl)cyclohexane-1-carboxamide]: the pIC50 with MLE12 cells (MLE12, 24 h) was 4.61; on OGG1 it was 6.42. Moreover, the pEC50 with CCL2 is 4.36.
For `COc1cc(NC(=O)[C@H]2CC[C@@H](n3c(=O)[nH]c4c(OCCN(C)C(=O)OC(C)(C)C)cccc43)CC2)ccc1C` [Example 308, tert-Butyl N-methyl-N-[2-({2-oxo-1-[cis-4-[(3-methoxy-4-methylphenyl)carbamoyl]cyclohexyl]-2,3-dihydro-1H-1,3-benzodiazol-4-yl}oxy)ethyl]carbamate], the pIC50 is 6.67 in the experiment with MLE12 cells (MLE12, 24 h) and 6.80 at OGG1. The pEC50 in the experiment on CCL2 was 5.69.
For `COc1ncc(NC(=O)[C@H]2CC[C@@H](n3c(=O)[nH]c4c(Br)cccc43)CC2)cc1C` [Example 168, (Cis)-4-(4-bromo-2-oxo-2,3-dihydro-1H-1,3-benzodiazol-1-yl)-N-(6-methoxy-5-methylpyridin-3-yl)cyclohexane-1-carboxamide], the pIC50 was 4.84 in the experiment on MLE12 cells (MLE12, 24 h) and 7.36 on OGG1. In the experiment with CCL2, the pEC50 was 4.49.
The like results for `CCNC(=O)c1cnn(-c2cccc3c2[nH]c(=O)n3C2CCN(C(=O)Nc3ccc(I)cc3)CC2)c1` [Example 87, 4-{4-[4-(Ethylcarbamoyl)-1H-pyrazol-1-yl]-2-oxo-2,3-dihydro-1H-1,3-benzodiazol-1-yl}-N-(4-iodophenyl)piperidine-1-carboxamide] were, in that order, 5.28, 6.33 and 5.19.
Consider `COc1cc(NC(=O)[C@H]2CC[C@@H](n3c(=O)[nH]c4c(N5CCNCC5)cccc43)CC2)ccc1C` [Example 240, Cis-N-(3-methoxy-4-methylphenyl)-4-[2-oxo-4-(piperazin-1-yl)-2,3-dihydro-1H-1,3-benzodiazol-1-yl]cyclohexane-1-carboxamide], for which the negative-log IC50 (pIC50) is 4.79 with MLE12 cells (MLE12, 24 h) and 7.82 on OGG1. Further, the pEC50 with CCL2 was 4.67.
Take `COCCOc1cccc2c1[nH]c(=O)n2[C@H]1CC[C@@H](C(=O)Nc2ccc(C)c(OC)c2)CC1` [Example 245, Cis-N-(3-methoxy-4-methylphenyl)-4-[4-(2-methoxyethoxy)-2-oxo-2,3-dihydro-1H-1,3-benzodiazol-1-yl]cyclohexane-1-carboxamide]: the negative logarithm of the IC50 (pIC50) was 4.90 in the experiment on MLE12 cells (MLE12, 24 h) and 5.56 against OGG1. Also, in the experiment on CCL2, the pEC50 is under 4.48.
The like results for `COc1cc(NC(=O)[C@H]2CC[C@@H](n3c(=O)[nH]c4c(OC5CCNCC5)cccc43)CC2)ccc1C` [Example 307, Cis-N-(3-methoxy-4-methylphenyl)-4-[2-oxo-4-(piperidin-4-yloxy)-2,3-dihydro-1H-1,3-benzodiazol-1-yl]cyclohexane-1-carboxamide] were, in that order, 4.54, 7.90 and 4.49.
For `COc1cc(NC(=O)[C@H]2CC[C@@H](n3c(=O)[nH]c4c(-c5cccc(OCCN(C)C)c5)cccc43)CC2)ccc1C` [Example 225, Cis-4-(4-{3-[2-(dimethylamino)ethoxy]phenyl}-2-oxo-2,3-dihydro-1H-1,3-benzodiazol-1-yl)-N-(3-methoxy-4-methylphenyl)cyclohexane-1-carboxamide], in that order: 5.77, 7.47 and 5.50.
Consider `COc1ccc(NC(=O)[C@H]2CC[C@@H](n3c(=O)[nH]c4c(Br)cccc43)CC2)cc1C` [Example 126, (Cis)-4-(4-bromo-2-oxo-2,3-dihydro-1H-1,3-benzodiazol-1-yl)-N-(4-methoxy-3-methylphenyl)cyclohexane-1-carboxamide], for which the negative-log IC50 (pIC50) in the experiment with MLE12 cells (MLE12, 24 h) was 4.81; on OGG1, 7.92. Besides, in the experiment with CCL2, the pEC50 is 4.58.
The like results for `COCC(=O)Nc1cccc2c1[nH]c(=O)n2[C@H]1CC[C@@H](C(=O)Nc2ccc(C)c(OC)c2)CC1` [Example 250, Cis-N-(3-methoxy-4-methylphenyl)-4-[4-(2-methoxyacetamido)-2-oxo-2,3-dihydro-1H-1,3-benzodiazol-1-yl]cyclohexane-1-carboxamide] were, in that order, 4.59, 7.63 and 4.40.
For the compound `COc1cc(NC(=O)[C@H]2CC[C@@H](n3c(=O)[nH]c4c(C(=O)NCCO)cccc43)CC2)ccc1C` [Example 263, N-(2-Hydroxyethyl)-2-oxo-1-[cis-4-[(3-methoxy-4-methylphenyl)carbamoyl]cyclohexyl]-2,3-dihydro-1H-1,3-benzodiazole-4-carboxamide], the pIC50 with MLE12 cells (MLE12, 24 h) is 4.57; at OGG1, 8.57. The pEC50 with CCL2 was under 4.48.
Regarding `COc1cc(NC(=O)[C@H]2CC[C@@H](n3c(=O)[nH]c4c(N(C)Cc5ccccc5)cccc43)CC2)ccc1C` [Example 243, Cis-4-{4-[benzyl(methyl)amino]-2-oxo-2,3-dihydro-1H-1,3-benzodiazol-1-yl}-N-(3-methoxy-4-methylphenyl)cyclohexane-1-carboxamide], the pIC50 in the experiment with MLE12 cells (MLE12, 24 h) was 5.24; against OGG1 it was 5.83. Further, the pEC50 in the experiment with CCL2 was 4.83.
Regarding `COc1cc(NC(=O)[C@H]2CC[C@@H](n3c(=O)[nH]c4c(C(=O)N5CCN(C)CC5)cccc43)CC2)ccc1C` [Example 268, Cis-N-(3-methoxy-4-methylphenyl)-4-[4-(4-methylpiperazine-1-carbonyl)-2-oxo-2,3-dihydro-1H-1,3-benzodiazol-1-yl]cyclohexane-1-carboxamide], the pIC50 is 4.87 in the experiment with MLE12 cells (MLE12, 24 h) and 6.82 against OGG1. The pEC50 in the experiment with CCL2 is under 4.00.
`COc1cc(NC(=O)[C@H]2CC[C@@H](n3c(=O)[nH]c4c(N5CCCC5)cccc43)CC2)ccc1C` [Example 310, Cis-N-(3-methoxy-4-methylphenyl)-4-[2-oxo-4-(pyrrolidin-1-yl)-2,3-dihydro-1H-1,3-benzodiazol-1-yl]cyclohexane-1-carboxamide]: the pIC50 is 5.21 in the experiment with MLE12 cells (MLE12, 24 h) and 7.29 against OGG1. Further, the pEC50 in the experiment with CCL2 is 4.87.
